Assay results published in patent US20230391768A2, “IMIDAZOPYRIDINE DERIVATIVES AND AZA-IMIDAZOPYRIDINE DERIVATIVES AS JANUS KINASE 2 INHIBITORS AND USES THEREOF” (Dana-Farber Cancer Institute, Inc., priority 2018, published 2023).

How the values were obtained:
EGFR(T790M) = EGFR(T790M) (Homo sapiens (Human), UniProt P00533, T790M); test: KINOMEscan; assay type: binding; settings: read-out: percent of control
Method: (§1) In vitro profiling of Compound I-2 (1 μM) was performed using the DiscoveRx KINOMEscan® platform.

GRK7 = GRK7 (Homo sapiens (Human), UniProt Q8WTQ7); test: KINOMEscan; assay type: binding; settings: read-out: percent of control
Chain of GRK7 (Q8WTQ7 whole entry): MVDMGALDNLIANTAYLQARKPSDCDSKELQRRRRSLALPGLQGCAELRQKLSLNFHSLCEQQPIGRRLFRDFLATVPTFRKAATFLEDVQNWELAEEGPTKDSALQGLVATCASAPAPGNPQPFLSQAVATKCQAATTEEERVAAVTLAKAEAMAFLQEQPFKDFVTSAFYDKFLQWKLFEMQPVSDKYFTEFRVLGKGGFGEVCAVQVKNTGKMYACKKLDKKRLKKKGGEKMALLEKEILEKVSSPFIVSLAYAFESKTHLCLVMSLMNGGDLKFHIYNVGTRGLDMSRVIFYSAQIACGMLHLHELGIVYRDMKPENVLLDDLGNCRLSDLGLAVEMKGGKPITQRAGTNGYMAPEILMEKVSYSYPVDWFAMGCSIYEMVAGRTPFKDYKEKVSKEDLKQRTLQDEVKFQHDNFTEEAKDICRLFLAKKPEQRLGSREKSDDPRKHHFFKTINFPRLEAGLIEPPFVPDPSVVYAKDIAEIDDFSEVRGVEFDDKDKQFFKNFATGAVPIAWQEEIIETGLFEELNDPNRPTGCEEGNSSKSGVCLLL
Method: as §1

ACVR1 = ACVR1 (Homo sapiens (Human), UniProt Q04771); test: KINOMEscan; assay type: binding; settings: read-out: percent of control
Chain of ACVR1 (Q04771 21-509): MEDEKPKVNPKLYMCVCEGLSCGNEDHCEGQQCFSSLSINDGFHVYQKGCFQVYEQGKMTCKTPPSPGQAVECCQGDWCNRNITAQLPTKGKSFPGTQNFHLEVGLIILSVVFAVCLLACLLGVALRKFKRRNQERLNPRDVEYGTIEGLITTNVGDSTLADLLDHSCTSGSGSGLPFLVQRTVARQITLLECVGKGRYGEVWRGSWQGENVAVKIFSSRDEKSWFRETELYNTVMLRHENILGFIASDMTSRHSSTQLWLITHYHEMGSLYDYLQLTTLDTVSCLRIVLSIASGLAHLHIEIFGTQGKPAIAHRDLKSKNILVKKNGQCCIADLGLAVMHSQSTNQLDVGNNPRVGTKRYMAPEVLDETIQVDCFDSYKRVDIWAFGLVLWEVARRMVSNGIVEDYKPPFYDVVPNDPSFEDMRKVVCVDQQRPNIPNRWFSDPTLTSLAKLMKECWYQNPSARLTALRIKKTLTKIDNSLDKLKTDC
Method: as §1

CAMK2D = CAMK2D (Homo sapiens (Human), UniProt Q13557); test: KINOMEscan; assay type: binding; settings: read-out: percent of control
Chain of CAMK2D (Q13557 whole entry): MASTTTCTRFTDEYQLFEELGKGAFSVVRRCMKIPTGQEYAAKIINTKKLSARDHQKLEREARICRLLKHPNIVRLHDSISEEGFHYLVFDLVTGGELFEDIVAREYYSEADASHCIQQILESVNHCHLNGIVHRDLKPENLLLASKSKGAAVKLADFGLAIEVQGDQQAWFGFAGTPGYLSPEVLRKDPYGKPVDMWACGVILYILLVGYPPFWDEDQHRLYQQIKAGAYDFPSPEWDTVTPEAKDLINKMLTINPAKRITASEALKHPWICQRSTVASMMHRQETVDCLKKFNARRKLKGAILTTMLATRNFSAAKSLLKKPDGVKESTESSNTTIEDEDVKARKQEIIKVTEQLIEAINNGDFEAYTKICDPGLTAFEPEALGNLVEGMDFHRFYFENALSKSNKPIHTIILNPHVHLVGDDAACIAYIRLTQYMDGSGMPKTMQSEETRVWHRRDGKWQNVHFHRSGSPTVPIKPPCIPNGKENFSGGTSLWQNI
Method: as §1

PIK3C2G = PIK3C2G (Homo sapiens (Human), UniProt O75747); test: KINOMEscan; assay type: binding; settings: read-out: percent of control
Chain of PIK3C2G (O75747 whole entry): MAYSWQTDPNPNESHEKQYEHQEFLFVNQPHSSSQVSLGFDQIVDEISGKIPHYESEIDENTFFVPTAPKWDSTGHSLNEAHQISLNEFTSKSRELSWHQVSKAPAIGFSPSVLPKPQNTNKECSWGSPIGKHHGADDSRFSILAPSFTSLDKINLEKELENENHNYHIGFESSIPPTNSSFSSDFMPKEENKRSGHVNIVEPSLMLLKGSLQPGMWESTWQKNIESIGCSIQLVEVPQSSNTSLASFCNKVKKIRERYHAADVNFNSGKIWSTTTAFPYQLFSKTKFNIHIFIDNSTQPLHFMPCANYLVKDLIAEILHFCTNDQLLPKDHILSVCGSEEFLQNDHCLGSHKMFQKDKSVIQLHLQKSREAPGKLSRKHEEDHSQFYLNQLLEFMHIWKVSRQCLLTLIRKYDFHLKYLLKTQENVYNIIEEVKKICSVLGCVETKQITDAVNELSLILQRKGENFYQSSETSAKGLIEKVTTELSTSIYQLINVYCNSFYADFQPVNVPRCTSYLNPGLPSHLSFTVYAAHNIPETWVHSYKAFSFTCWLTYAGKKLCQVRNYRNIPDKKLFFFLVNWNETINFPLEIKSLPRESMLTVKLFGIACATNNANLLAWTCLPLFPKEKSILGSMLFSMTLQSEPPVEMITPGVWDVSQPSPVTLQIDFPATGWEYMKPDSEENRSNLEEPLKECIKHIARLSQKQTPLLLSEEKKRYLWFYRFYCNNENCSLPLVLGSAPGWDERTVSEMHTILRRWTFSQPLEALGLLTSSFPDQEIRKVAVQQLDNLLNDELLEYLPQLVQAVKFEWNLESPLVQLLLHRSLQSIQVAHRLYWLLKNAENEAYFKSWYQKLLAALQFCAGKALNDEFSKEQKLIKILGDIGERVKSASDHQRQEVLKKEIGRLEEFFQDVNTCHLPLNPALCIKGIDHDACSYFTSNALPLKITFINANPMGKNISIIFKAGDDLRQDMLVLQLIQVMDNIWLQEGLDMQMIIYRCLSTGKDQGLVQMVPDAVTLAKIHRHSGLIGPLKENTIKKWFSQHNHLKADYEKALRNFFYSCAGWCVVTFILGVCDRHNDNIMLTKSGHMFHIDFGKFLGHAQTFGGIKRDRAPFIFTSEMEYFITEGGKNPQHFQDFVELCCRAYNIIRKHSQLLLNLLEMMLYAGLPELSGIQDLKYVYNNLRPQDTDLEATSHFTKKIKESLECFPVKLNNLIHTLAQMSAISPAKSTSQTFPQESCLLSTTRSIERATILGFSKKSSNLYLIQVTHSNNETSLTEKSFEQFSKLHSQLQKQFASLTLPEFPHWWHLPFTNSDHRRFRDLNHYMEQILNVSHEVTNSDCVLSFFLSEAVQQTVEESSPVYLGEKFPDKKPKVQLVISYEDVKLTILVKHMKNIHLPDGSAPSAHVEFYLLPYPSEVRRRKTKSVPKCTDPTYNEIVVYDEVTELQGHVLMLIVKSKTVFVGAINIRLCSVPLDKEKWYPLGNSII
Method: as §1

HIPK2 = HIPK2 (Homo sapiens (Human), UniProt Q9H2X6); test: KINOMEscan; assay type: binding; settings: read-out: percent of control
Method: as §1

[1] = target: RSK4 (Kin.Dom.2-C-terminal) (Homo sapiens (Human), UniProt Q9UK32); test: KINOMEscan; assay type: binding; settings: read-out: percent of control
Chain of RSK4 (Kin.Dom.2-C-terminal) (Q9UK32 426-683): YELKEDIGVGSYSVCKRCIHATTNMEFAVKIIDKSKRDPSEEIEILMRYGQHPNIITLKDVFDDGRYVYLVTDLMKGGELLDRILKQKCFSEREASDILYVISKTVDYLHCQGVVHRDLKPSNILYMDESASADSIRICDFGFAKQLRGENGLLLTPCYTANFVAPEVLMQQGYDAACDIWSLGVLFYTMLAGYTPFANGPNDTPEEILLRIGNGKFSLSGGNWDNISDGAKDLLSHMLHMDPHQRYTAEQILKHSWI
Method: as §1

JAK2 = JAK2 (Homo sapiens (Human), UniProt O60674); test: JAK2 Z-Lyte biochemical assay; settings: commercial JAK2 Z-Lyte assay from Invitrogen
Chain of JAK2 (O60674 whole entry): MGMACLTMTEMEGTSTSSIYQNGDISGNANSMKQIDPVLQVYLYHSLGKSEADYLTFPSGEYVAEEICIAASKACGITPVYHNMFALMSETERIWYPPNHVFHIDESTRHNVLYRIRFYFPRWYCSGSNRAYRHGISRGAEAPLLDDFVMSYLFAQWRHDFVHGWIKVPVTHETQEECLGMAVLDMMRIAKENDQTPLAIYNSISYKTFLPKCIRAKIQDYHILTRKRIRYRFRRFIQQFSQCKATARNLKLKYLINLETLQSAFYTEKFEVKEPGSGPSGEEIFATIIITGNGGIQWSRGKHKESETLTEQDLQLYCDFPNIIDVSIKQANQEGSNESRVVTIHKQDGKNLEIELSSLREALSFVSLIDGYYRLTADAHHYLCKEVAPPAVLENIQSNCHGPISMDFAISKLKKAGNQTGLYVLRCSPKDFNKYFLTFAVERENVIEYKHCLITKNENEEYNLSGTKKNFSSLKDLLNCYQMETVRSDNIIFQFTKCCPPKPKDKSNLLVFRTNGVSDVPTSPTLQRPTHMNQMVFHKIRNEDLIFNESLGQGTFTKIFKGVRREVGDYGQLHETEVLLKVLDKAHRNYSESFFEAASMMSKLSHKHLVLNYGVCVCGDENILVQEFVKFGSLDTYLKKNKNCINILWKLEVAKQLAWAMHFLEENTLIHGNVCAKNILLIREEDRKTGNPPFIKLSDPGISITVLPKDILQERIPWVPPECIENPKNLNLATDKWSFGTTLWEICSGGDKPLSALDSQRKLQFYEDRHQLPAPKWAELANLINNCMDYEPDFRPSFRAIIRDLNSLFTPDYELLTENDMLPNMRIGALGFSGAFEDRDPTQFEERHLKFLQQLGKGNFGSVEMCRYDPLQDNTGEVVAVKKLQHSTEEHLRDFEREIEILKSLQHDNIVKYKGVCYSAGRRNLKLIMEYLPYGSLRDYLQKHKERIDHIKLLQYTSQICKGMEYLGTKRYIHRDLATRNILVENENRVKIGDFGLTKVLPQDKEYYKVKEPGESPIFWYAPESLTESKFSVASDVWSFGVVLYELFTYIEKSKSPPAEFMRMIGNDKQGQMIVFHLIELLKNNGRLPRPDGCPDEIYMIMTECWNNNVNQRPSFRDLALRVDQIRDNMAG
Method: The JAK2 Z-Lyte biochemical assay was performed according to manufacturer's instructions (Life Technologies).

| Compound | remaining binding at 1 µM (EGFR(T790M)) [%] | remaining binding at 1 µM (GRK7) [%] | remaining binding at 1 µM (ACVR1) [%] | remaining binding at 1 µM (CAMK2D) [%] | remaining binding at 1 µM (PIK3C2G) [%] | remaining binding at 1 µM (HIPK2) [%] | remaining binding at 1 µM [1] [%] | IC50 (JAK2) [µM] |
| --- | --- | --- | --- | --- | --- | --- | --- | --- |
| CCN1CCN(Cc2cc(NC(=O)c3ccc(C)c(-c4ccc5nc(NC(=O)C6CC6)cn5n4)c3)cc(C(F)(F)F)c2)CC1 [Compound I-2, 3-(2-(cyclopropanecarboxamido)imidazo[1,2-b]pyridazin-6-yl)-N-(3-((4-ethylpiperazin-1-yl)methyl)-5-(trifluoromethyl)phenyl)-4-methylbenzamide] | 15 | 100 | 100 | 100 | 92 | 93 | 94 | 0.19 |
| CCN1CCN(Cc2cc(NC(=O)c3ccc(C)c(-c4ccc5nc(NC(=O)C6CC6)cn5c4)c3)cc(C(F)(F)F)c2)CC1 [Compound I-6, 3-(2-(cyclopropanecarboxamido)imidazo[1,2-a]pyridin-6-yl)-N-(3-((4-ethylpiperazin-1-yl)methyl)-5-(trifluoromethyl)phenyl)-4-methylbenzamide] | 15 | 97 | 100 | 92 | 95 | 94 | 77 | 0.284 |
